Laboratory results taken from patent EP0923292B1, “IMPROVED METHOD FOR SYSTEMIC ADMINISTRATION OF 2,4-DIENOIC ACID-TYPE INSECTICIDES TO TERRESTRIAL MAMMALS” (priority 1996, dated 1998).

What was measured:
[1] = (S)-Methoprene concentration in fat of rat upon in vivo administration (radioassay/TLC); design: species or system Sprague-Dawley male rats
Experimental: Sprague-Dawley CD® VAF/PLUS® male rats were purchased from Charles River Breeding Laboratories, Inc., Portage, Michigan, USA. The body weights of the rats averaged 200 g at the time of dose administration. The rats were quarantined for five days before use, except for jugular vein-cannulated rats, to which doses were administered 1 to 3 days after receipt. The rats were divided into three groups for dosage with ^14C-(S)-methoprene: • Group A received a single dose of 10 mg/kg of the ovicide through intravenous injection via the jugular vein. Three rats each were sacrificed at 0.5 hour, 1 hour, 2 hours, 3 hours, 4 hours, 5 hours, 6 hours, and 7 hours after dosing. • Group B received a single dose 10 mg/kg of the ovicide through oral administration by gavage dosing. Three rats each were sacrificed at 1 hour, 2 hours, 3 hours, 4 hours, 5 hours, 6 hours, 7 hours, and 8 hours after dosing. • Group C received a single dose 100 mg/kg of the ovicide through oral administration by gavage dosing. Three rats each were sacrificed at 1 hour, 2 hours, 3 hours, 4 hours, 5 hours, 6 hours, 7 hours, and 8 hours after dosing. After dosing the rats were house individually in cages. Daily room temperature was maintained between 69°C and […] and the relative humidity was between 40% and 70%. All rats had free access to food and fresh tap water.
For analyses of the ovicide in fat, visceral fat was collected from the sacrificed rats. The fat sample from each rat was thoroughly mixed 1:1 with cellulose powder, and homogenized with a few drops of water. A portion (0.5 to 1 g) of each fat sample was extracted with 10 mL of a mixture of hexane/diethyl ether (1:1), which was treated vigorously on a sonicator for four minutes, then vortex mixed for two minutes and centrifuged. This procedure was repeated twice. The extracts were then combined, radioassayed, rotary evaporated, and concentrated under nitrogen for TLC analysis. A small amount of methanol was added to precipitate the fat to improve the TLC separation. Radioassays and TLC analyses were performed in the same manner as for the blood samples.

[2] = system: C. felis; assay: Systemic ovicidal activity upon oral administration (initial bolus plus daily diet) to host dogs (Example 3); assay type: in vivo, C. felis (host: dogs); details: eggs collected from the dogs, week 4
Text: Eleven days before the administration of the first gelatin capsule (i.e., on Day -11), and weekly thereafter through Day 59, each dog was infested with approximately 200 one-to two-week-old, unfed adult C. fells fleas of mixed sex ratio. Each dog was restrained for about one minute while the fleas were released along the dorsum.
Flea eggs were collected on Days -7, 0, 1, 2, 4, 7, and weekly thereafter through Day 63. Prior to egg collection, the cages in which the dogs were housed and the collection trays were rinsed with isopropyl alcohol, and the water was turned off, feed bowls and resting pads were removed from each cage. […] Using a dissecting microscope and a fine tipped artist brush, 100 flea eggs were counted from the sweepings of each dog and separated into four replicates of 25 eggs each. […] Seventy two hours after collection, larvae emergence was determined. Both dead and live larvae were counted to determine the ovicidal effect of the treatment. […]
Three days prior to the week 4 data point, each dog was infested with fleas in the manner described in Example 2. At week 4, flea eggs were collected from the dogs themselves in the manner described in Example 2, and the percent inhibition of egg hatch for the fleas collected in this manner was determined as in Example 2.

## COC(C)(C)CCC[C@H](C)C/C=C/C(C)=C/C(=O)OC(C)C [(S)-Methoprene, 1-isopropyl (E,E)-11-methoxy-3,7,11-trimethyl dodecadi-2,4-enoate]
[1]; Group A 10 mg/kg I.V., 0.5 hours, average of three animals
  (S)-Methoprene Concentration in Fat: 4.193 ± 1.566 ppm
[1]; Group A 10 mg/kg I.V., 1 hour, average of three animals
  (S)-Methoprene Concentration in Fat: 6.936 ± 3.259 ppm
[1]; Group A 10 mg/kg I.V., 2 hours, average of three animals
  (S)-Methoprene Concentration in Fat: 5.929 ± 1.197 ppm
[1]; Group A 10 mg/kg I.V., 3 hours, average of three animals
  (S)-Methoprene Concentration in Fat: 5.233 ± 0.457 ppm
[1]; Group A 10 mg/kg I.V., 4 hours, average of three animals
  (S)-Methoprene Concentration in Fat: 8.179 ± 3.532 ppm
[1]; Group A 10 mg/kg I.V., 5 hours, average of three animals
  (S)-Methoprene Concentration in Fat: 7.596 ± 3.990 ppm
[1]; Group A 10 mg/kg I.V., 6 hours, average of three animals
  (S)-Methoprene Concentration in Fat: 6.734 ± 2.209 ppm
[1]; Group A 10 mg/kg I.V., 7 hours, average of three animals
  (S)-Methoprene Concentration in Fat: 8.077 ± 1.082 ppm
[1]; Group B 10 mg/kg oral, 1 hour, average of three animals
  (S)-Methoprene Concentration in Fat: 0.272 ± 0.103 ppm
[1]; Group B 10 mg/kg oral, 2 hours, average of three animals
  (S)-Methoprene Concentration in Fat: 1.138 ± 0.388 ppm
[1]; Group B 10 mg/kg oral, 3 hours, average of three animals
  (S)-Methoprene Concentration in Fat: 1.715 ± 0.680 ppm
[1]; Group B 10 mg/kg oral, 4 hours, average of three animals
  (S)-Methoprene Concentration in Fat: 2.327 ± 1.090 ppm
[1]; Group B 10 mg/kg oral, 5 hours, average of three animals
  (S)-Methoprene Concentration in Fat: 2.980 ± 0.657 ppm
[1]; Group B 10 mg/kg oral, 6 hours, average of three animals
  (S)-Methoprene Concentration in Fat: 3.369 ± 0.814 ppm
[1]; Group B 10 mg/kg oral, 7 hours, average of three animals
  (S)-Methoprene Concentration in Fat: 2.921 ± 1.345 ppm
[1]; Group B 10 mg/kg oral, 8 hours, average of three animals
  (S)-Methoprene Concentration in Fat: 2.408 ± 0.702 ppm
[1]; Group C 100 mg/kg oral, 1 hour, average of two animals
  (S)-Methoprene Concentration in Fat: 1.060 ± 0.270 ppm
[1]; Group C 100 mg/kg oral, 2 hours, average of three animals
  (S)-Methoprene Concentration in Fat: 14.726 ± 3.371 ppm
[1]; Group C 100 mg/kg oral, 3 hours, average of three animals
  (S)-Methoprene Concentration in Fat: 22.868 ± 3.322 ppm
[1]; Group C 100 mg/kg oral, 4 hours, average of three animals
  (S)-Methoprene Concentration in Fat: 45.316 ± 16.910 ppm
[1]; Group C 100 mg/kg oral, 5 hours, average of three animals
  (S)-Methoprene Concentration in Fat: 38.420 ± 2.765 ppm
[1]; Group C 100 mg/kg oral, 6 hours, average of three animals
  (S)-Methoprene Concentration in Fat: 41.898 ± 11.568 ppm
[1]; Group C 100 mg/kg oral, 7 hours, average of three animals
  (S)-Methoprene Concentration in Fat: 39.393 ± 17.952 ppm
[1]; Group C 100 mg/kg oral, 8 hours, average of three animals
  (S)-Methoprene Concentration in Fat: 47.162 ± 20.116 ppm
[2]; initial bolus 25 mg/kg then daily diet 0.01% (S)-methoprene
  Percent Inhibition of Flea Egg Hatching: 100%
[2]; initial bolus 50 mg/kg then daily diet 0.02% (S)-methoprene
  Percent Inhibition of Flea Egg Hatching: 100%
